This is an account of results in article PMC10380841, “Synthesis, Characterization and Cytotoxic Evaluation of New Pyrrolo[1,2-b]pyridazines Obtained via Mesoionic Oxazolo-Pyridazinones” (International Journal of Molecular Sciences, 2023).

The subject of data set [1] is MCF-7 breast adenocarcinoma cells. Kind of data set: MTS cytotoxicity assay, MCF-7. The settings on record: Homo sapiens, MCF7; for viability at 200 µM: MCF-7, 200 μM; for viability at 200 µM / viability at 400 µM: 48 h, read-out: cell viability; for viability at 400 µM: MCF-7, 400 μM; for IC50: MCF-7, 48 h, read-out: IC50 MCF-7 48 h. It counts as cell-based, human. How it is done:
(§1) Therefore, the precursor acids 2a–c and corresponding pyrrolo[1,2-b]pyridazines 5a–c,f were tested for their potential cytotoxic activity. During the assays, increasing concentrations of the compounds, ranging from […], were added for 24 h or 48 h to cancer LoVo, SK-OV-3, MCF-7, and the reference HUVEC cells, previously cultured for 24 h in 96-well flat bottom plates. […] Then, MTS reagent was added, and cells were incubated for 4 h at 37 °C in a 5% CO2 humidified atmosphere. The absorbance values were spectrophotometrically read to a Dynex ELISA reader at λ = […].
(§2) For the evaluation of the in vitro potential anti-proliferative effects of treatments with the new compounds under study against solid tumor-derived cells, several compound-mediated cytotoxicity assays were performed on three adherent tumor standardized cell lines, and normal human endothelial cells, used as control: the MCF-7 human breast adenocarcinoma and SK-OV-3 human ovary adenocarcinoma cell lines were provided from European Collection of Authenticated Cell Cultures (ECACC), while LoVo, human colorectal adenocarcinoma cell line, and HUVEC human umbilical vein endothelial cells were purchased from American Type Culture Collection (ATCC).
(§3) Adherent cells were cultivated in DMEM/F12 medium added with 2 mM L-glutamine and 10% fetal bovine serum, 100 units/mL penicillin, 100 µg/mL streptomycin (Sigma Aldrich, St. Louis, MO, USA) and incubated at 37 °C in 5% CO2 humidified atmosphere. The stock solutions for cell treatments were prepared by dissolving the synthesized compounds in a minimum amount of DMSO. Working dilutions were prepared from the stock solutions in culture medium before each treatment assay. After 24 h, when cell cultures achieved around 70% confluence, treatments were applied for various periods of time with different concentrations of synthesized compounds or oncolytic drugs, used as positive controls.
(§4) Therefore, cell cultures treated with the new compounds or oncolytic drugs for 24 h or 48 h were further subjected to a colorimetric cell viability method, the MTS assay. The absorbance of probes was read, data were calculated, and percentages of cell viability were assessed.
The evaluation of the compound-induced cytotoxicity was made using the CellTiter 96 Aqueous One Solution Cell Proliferation Assay (Promega, Madison, WI, USA), a reagent that contains both MTS (3-(4,5-dimethylthiazol-2-yl)-5-(3-carboxymethoxyphenyl)-2-(4-sulfophenyl)-2H-tetrazolium, inner salt) and PES ([…], a cationic dye with high chemical stability that binds to MTS and forms a stable solution). The assay is based on the ability of the metabolically active cells to reduce the yellow tetrazolium salt MTS to a compound that is soluble in culture medium, the colored formazan, followed by the spectrophotometric evaluation of its concentration.
(§5) Briefly, 1.5 × 10^4 cancer or normal cells were cultured in 100 µL/well for 24 h. After the culture supernatants were discarded, cells were treated for additional 24 h or 48 h with increasing concentrations of new compounds or oncolytic drugs. Following the specific treatments, in each well a volume of 20 µL of coloring mixture reagent of MTS and PES was added, and then the plates were incubated with mild agitation every 20 min for 4 h at 37 °C. The color developed during incubation was spectrophotometrically quantified at λ = 492 nm using a Dynex ELISA reader (DYNEX Technologies—MRS, Chantilly, VA, USA).
(§6) Data were expressed as percentages of cell viability of the treated cells, and were calculated and compared to the untreated cells (considered 100% viable), using the formula:Cell viability (%) = (T − B)/(U − B) × 100 where T = absorbance of treated cells, U = absorbance of untreated cells, and B = absorbance of culture medium (blank), for λ = 492 nm.
The cell viability data were expressed as the mean values ± standard deviations (SD) of three different experiments (n = 3). […]

The subject of data set [2] is LoVo colon adenocarcinoma cells. Kind of data set: MTS cytotoxicity assay, LoVo. The format is cell-based, human. Conditions: Homo sapiens. How it is done:
as §1, §2, §3, §4
(§7) The evaluation of the compound-induced cytotoxicity was made using the CellTiter 96 Aqueous One Solution Cell Proliferation Assay (Promega, Madison, WI, USA), a reagent that contains both MTS (3-(4,5-dimethylthiazol-2-yl)-5-(3-carboxymethoxyphenyl)-2-(4-sulfophenyl)-2H-tetrazolium, inner salt) and PES ([…], a cationic dye with high chemical stability that binds to MTS and forms a stable solution).
as §5, §6
(§8) The cell viability data were expressed as the mean values ± standard deviations (SD) of three different experiments (n = 3). […] Moreover, a parallel experiment was performed in the absence of cells, with all the concentrations of the compounds being tested for their potential interference with MTS reagents; then, their absorbance values were extracted during calculations.

The test system of data set [3] is SK-OV-3 ovary adenocarcinoma cells. Kind of data set: MTS cytotoxicity assay, SK-OV-3. The format is cell-based. The settings on record: Homo sapiens, SK-OV-3, 400 μM, read-out: cell viability.
Data set [4] deals with LoVo colon adenocarcinoma cells. In words: MTS cytotoxicity assay, LoVo. It counts as cell-based. Conditions: Homo sapiens, read-out: cell viability.
Data set [5] relates to SK-OV-3 ovary adenocarcinoma cells. In words: MTS cytotoxicity assay, SK-OV-3. The format is cell-based, human. The settings on record: Homo sapiens. How it is done:
as §1, §2, §3, §4, §7, §5, §6, §8

In data set [6] the test system is Triticum aestivum L. Kind of data set: Triticum test, phytotoxicity (main root length). It counts as in vivo. Conditions: Triticum aestivum, 72 h; Triticum root length, 10–1000 µM, measured over three days. How it is done: Phytobiological testing (Triticum test) was performed by the Constantinescu method which consists in determining the maximum active dilution of a compound. Depending on the duration of action, it can influence root elongation and the […] film. […] Embryonic wheat roots were obtained by germinating homogeneous wheat caryopses in Linhart pots. Then the caryopses with a main root length of 1 cm were placed in the test solutions. For the determination of the action of each compound, five dilutions in the concentration range of 10–1000 µM were obtained and 11 caryopses were placed in them. Petri dishes containing 15 mL of diluted solution were kept under constant conditions of temperature (25 °C), and humidity (60%), in the absence of light. […] The results were expressed in comparison with a 1% DMSO control.
Statistical analyses were performed using the computing and programming environment R, R, v. 4.2.1 [68], under Rstudio, v. 2022.07.2+576 “Spotted Wakerobin” for Windows (RStudio, PBC, Boston, 2022), both for the Triticum and Artemia tests. It used a parametric mixed-effects model (R package “lme4”) and a robust mixed-effects model (R package “robustlmm”), in which root length measurements (Triticum) from all three days were used as the dependent variable, whereas compound, concentration and time were treated as fixed effects, with time (day of measurement) also treated as a random effect. Assessing statistical significance for mixed-effects statistical models is controversial and complex, but as a pragmatic way of working, we have estimated p-values using the Kenward–Rogers approximation (R package “sjPlot”). A variety of R base functions and R packages were used to diagnose the regression models (“car” [72], “MASS” [73], and “gvlma” [74]). Mixed boxplot–dotplot plots were generated using the “ggplot2” package.
The “drc” R package was used to estimate IC50 values for the Triticum bioassay by nonlinear modeling. For Triticum, the relationship between root length and concentration was modeled using Weibull functions with 2, 3, or 4 parameters, depending on the data distribution, the models being selected from a range of several models with different functions and parameters, based on the Akaike’s information criterion (AIC).

A short description of data set [7]: Daphnia magna toxicity assay. It counts as in vivo. The settings on record: Daphnia magna, in vivo; 48 h. How it is done:
(§9) Young organisms of Daphnia magna were selected according to their size from a parthenogenetic culture maintained in an artificial medium for 24 h before the bioassay. The determination was conducted in tissue culture plates with 12 wells (Greiner Bio-One, Monroe, NC, USA), with 10 organisms in each well, and a final volume of 3 mL per sample [65, 66]. As a negative control, DMSO was used at a concentration of 1%. All compounds were tested at six different concentration levels, ranging from 12.5 to 500 μg/mL. All assessments were performed in duplicate.

The test system of data set [8] is Daphnia magna Straus. In words: Daphnia magna toxicity assay. It counts as in vivo. The settings on record: 48 h. The protocol:
as §9

The test system of data set [9] is Triticum vulgare root tips. Kind of data set: Microscopic examination of Triticum root tips (mitotic film changes). It counts as in vivo. Conditions: 1000 μM, 24 h contact. The protocol:
Microscopic examination of Triticum vulgare root tips followed the mitotic film changes induced by the tested compounds. Observations were made after 24 h of contact of the caryopses with the test solutions. The study was made in comparison with DMSO control maintained under the same conditions as the samples. To obtain microscopic preparations, sectioning of wheat embryonic roots was carried out at about 5 mm from the tip and stained with dilute […] according to the La Cour procedure. The examination was conducted on a Euromex oxion series 110–240 V/50–60 Hz microscope with digital camera CEMEX 5 DC 5000 C and 40× and 100× lenses with cedar oil immersion (Sigma-Aldrich St. Louis, MO, USA).

A short description of data set [10]: MTS cytotoxicity assay, HUVEC normal cells. The settings on record: human, HUVEC human umbilical vein endothelial cells (normal cells), 400 μM, read-out: cell viability. The format is cell-based, human. The protocol: as §1, §2, §3, §4, §7, §5, §6, §8
Setting [11] is: SK-OV-3, 24 h, read-out: IC50 Sk-OV-3 24 h.
Setting [12] is: SK-OV-3, 48 h, read-out: IC50 Sk-OV-3 48 h.

The structures appear in SMILES notation. Like-named read-outs stand apart in the source and are kept apart here.

`CCOC(=O)C(CC)n1nc(-c2ccccc2)ccc1=O` (centres unmarked) [Compound 1a, Ethyl 2-(6-oxo-3-phenylpyridazin-1-yl)butanoate] had a melting point of 56 to 58 °C.

`CCOC(=O)C(CC)n1nc(-c2ccc(F)cc2)ccc1=O` (centres unmarked) [Compound 1b, Ethyl 2-[6-oxo-3-(4-fluorophenyl)pyridazin-1-yl]butanoate] yielded a melting point of 59 to 61 °C.

For the compound `CCOC(=O)C(CC)n1nc(-c2ccc(Cl)cc2)ccc1=O` (centres unmarked) [Compound 1c, Ethyl 2-[6-oxo-3-(4-chlorophenyl)pyridazin-1-yl]butanoate], the melting point lay in the range of 49 to 51 °C.

Turning to `CCC(C(=O)O)n1nc(-c2ccccc2)ccc1=O` (centres unmarked) [Compound 2a, 2-(6-Oxo-3-phenylpyridazin-1-yl)butanoic acid], the viability at 200 µM is 97% in data set [1] and 82.9% in [4] (200 μM, 48 h). In addition, the viability at 400 µM worked out at 94% in data set [1]; 89.3% in data set [3] (24 h); 85.1% in data set [3] (48 h); 69.1% in data set [4] (24 h); 60.8% in [4] (48 h). In addition, the IC50 was ≥ 400 µM in data set [1]; ≥ 400 µM in [2] (24 h, read-out: IC50 LoVo 24 h); ≥ 400 µM in data set [2] (48 h, read-out: IC50 LoVo 48 h); ≥ 400 µM in data set [5] (setting [11]); ≥ 400 µM in [5] (setting [12]); 213 µM in data set [6]. In data set [7], this compound gave an LC50 at 48 h of 521 µM. Further, in data set [8], the “toxicity on Daphnia magna” value is given as “moderate toxicity”.

In the case of `CCC(C(=O)O)n1nc(-c2ccc(Cl)cc2)ccc1=O` (centres unmarked) [Compound 2c, 2-[6-Oxo-3-(4-chlorophenyl)pyridazin-1-yl]butanoic acid], the IC50 was ≥ 400 µM in data set [2] (24 h, read-out: IC50 LoVo 24 h); 367 ± 3.7 µM in data set [2] (48 h, read-out: IC50 LoVo 48 h); ≥ 400 µM in data set [5] (setting [11]); ≥ 400 µM in [5] (setting [12]); 553 µM in data set [6]. The viability at 400 µM in data set [3] (24 h) was 88.3%; in data set [4] (24 h) it was 78.2%; in data set [4] (48 h), 48.1%. Besides, the “mitotic film / cell changes in root tips” value in data set [9] is “disorganized metaphase”. The “toxicity on Daphnia magna” value in data set [8] is “no toxicity”. Moreover, in [8] (all tested concentrations), the “L% values (lethality)” value is given as “ND * (all L% values were lower than 30%)”.

`CCOC(=O)c1cc(CC)n2nc(-c3ccccc3)ccc12` [Compound 5d, Ethyl 7-ethyl-2-phenylpyrrolo[1,2-b]pyridazine-5-carboxylate] gave a melting point of 99 to 101 °C.

Consider `CCOC(=O)c1cc(CC)n2nc(-c3ccc(Cl)cc3)ccc12` [Compound 5f, Ethyl 2-(4-chlorophenyl)-7-ethylpyrrolo[1,2-b]pyridazine-5-carboxylate], for which the viability at 200 µM in [1] was 97%. The viability at 400 µM was 94% in data set [1], 83% in [3] (48 h), 78.2% in data set [4] (24 h) and 41.8% in data set [4] (48 h). Moreover, the IC50 in [1] was ≥ 400 µM; in data set [2] (24 h, read-out: IC50 LoVo 24 h), ≥ 400 µM; in [2] (48 h, read-out: IC50 LoVo 48 h), 353 ± 4.1 µM; in data set [5] (setting [11]), ≥ 400 µM; in data set [5] (setting [12]), ≥ 400 µM. Moreover, the viability at 24 h, 400 µM in data set [10] (24 h) came out at 90%. In data set [10] (48 h), the viability at 48 h, 400 µM stood at 91.6%. Moreover, the LC50 at 48 h in [7] was 428 µM. In addition, the “toxicity on Daphnia magna” value in data set [8] was “moderate toxicity”.
